Results as given in PubChem BioAssay AID1963825 (Molecular Pharmacology Branch, DTP, NCI, 2024).

Assay: Anticancer human tumor 997537-175-T-J1-PDC patient-derived colon adenocarcinoma cell line growth inhibition [POLQ]
Conditions: 997537-175-T-J1-PDC complex spheroid viability, combination with POLQ inhibitors; for IC50: curve of first compound; for viability, T/C: stronger effect = lower value; active means viability on the fitted dose curve at most 10% of control; inactive means the rest
Summary of the method: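 Patient-derived tumour cells were co-cultured with HUVEC and mesenchymal stem cells as multicellular spheroids at 37 °C. They were treated with POLQ inhibitors (novobiocin, ART-558, RP6685) alone or combined with other agents. Top concentrations were at or near clinical Cmax (otherwise 10 microM; SN-38 at 1 microM), decreasing in half-log steps.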
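Further: luminescence signal used as a surrogate for viable cells; spheroids exposed to drugs for seven days before readout.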

CC(=O)O[C@H]1C(=O)[C@@]2(C)[C@H]([C@H](OC(=O)c3ccccc3)[C@]3(O)C[C@H](OC(=O)[C@H](O)[C@@H](NC(=O)c4ccccc4)c4ccccc4)C(C)=C1C3(C)C)[C@]1(OC(C)=O)CO[C@@H]1C[C@@H]2O + Cc1cccc(N(C)C(=O)C2C(O)CCN2c2nc(C)cc(C(F)(F)F)c2C#N)c1
32.2 nM: IC50 (second compound 0.316 µM)
< 9.49 nM: IC50 (second compound 0.0316 µM) | IC50 (second compound 0.1 µM) | IC50 (second compound 1 µM) | IC50 (second compound 10 µM)
inactive: viability, T/C (second compound 0.0316 µM, first compound 0.00949 µM) 56% | viability, T/C (second compound 0.0316 µM, first compound 0.03 µM) 32.5% | viability, T/C (second compound 0.0316 µM, first compound 0.0949 µM) 16.2% | viability, T/C (second compound 0.0316 µM, first compound 0.3 µM) 20.3% | viability, T/C (second compound 0.0316 µM, first compound 0.949 µM) 35.2% | viability, T/C (second compound 0.0316 µM, first compound 3 µM) 41.5% | viability, T/C (second compound 0.1 µM, first compound 0.00949 µM) 53.7% | viability, T/C (second compound 0.1 µM, first compound 0.03 µM) 39% | viability, T/C (second compound 0.1 µM, first compound 0.0949 µM) 45.4% | viability, T/C (second compound 0.1 µM, first compound 0.3 µM) 32.4% | viability, T/C (second compound 0.1 µM, first compound 0.949 µM) 41.5% | viability, T/C (second compound 0.1 µM, first compound 3 µM) 35.5% | viability, T/C (second compound 0.316 µM, first compound 0.00949 µM) 54.1% | viability, T/C (second compound 0.316 µM, first compound 0.03 µM) 51.6% | viability, T/C (second compound 0.316 µM, first compound 0.0949 µM) 30.1% | viability, T/C (second compound 0.316 µM, first compound 0.3 µM) 29.8% | viability, T/C (second compound 0.316 µM, first compound 0.949 µM) 26.2% | viability, T/C (second compound 0.316 µM, first compound 3 µM) 20.3% | viability, T/C (second compound 1 µM, first compound 0.00949 µM) 41% | viability, T/C (second compound 1 µM, first compound 0.03 µM) 32.3% | viability, T/C (second compound 1 µM, first compound 0.0949 µM) 28.3% | viability, T/C (second compound 1 µM, first compound 0.3 µM) 39.7% | viability, T/C (second compound 1 µM, first compound 0.949 µM) 34.3% | viability, T/C (second compound 1 µM, first compound 3 µM) 31.9% | viability, T/C (second compound 3.16 µM, first compound 0.00949 µM) 79.5% | viability, T/C (second compound 3.16 µM, first compound 0.03 µM) 38.5% | viability, T/C (second compound 3.16 µM, first compound 0.0949 µM) 20.8% | viability, T/C (second compound 3.16 µM, first compound 0.3 µM) 40.2% | viability, T/C (second compound 3.16 µM, first compound 0.949 µM) 31.5% | viability, T/C (second compound 3.16 µM, first compound 3 µM) 34.2% | viability, T/C (second compound 10 µM, first compound 0.00949 µM) 48.1% | viability, T/C (second compound 10 µM, first compound 0.03 µM) 38.8% | viability, T/C (second compound 10 µM, first compound 0.0949 µM) 47.5% | viability, T/C (second compound 10 µM, first compound 0.3 µM) 30.6% | viability, T/C (second compound 10 µM, first compound 0.949 µM) 26.2% | viability, T/C (second compound 10 µM, first compound 3 µM) 53.9%
20.9 nM: IC50 (second compound 3.16 µM)
